≈ marks a conversion by molar mass, not a printed value.

What all share (type): functional
In one experiment the test system is Cryptococcus neoformans. The experiment in a line: Antifungal activity against Cryptococcus neoformans.
The test system of a further experiment is Bacillus subtilis. Put plainly: Antibacterial activity against Bacillus subtilis.
Another experiment relates to Micrococcus luteus. Put plainly: Antibacterial activity against Micrococcus luteus.

Consider `NCCc1c[nH]c2c(O)cc(Br)c(-c3c(Br)cc(O)c4[nH]cc(CCN)c34)c12` [DENDRIDINE A], for which the MIC – broadly, the least concentration at which growth counts as inhibited – in the experiment on Cryptococcus neoformans is 8.3 µg/mL (≈ 16.3 µM); in the experiment on Bacillus subtilis, 8.3 µg/mL (≈ 16.3 µM); against Micrococcus luteus, 4.2 µg/mL (≈ 8.26 µM).

Values taken from ChEMBL document CHEMBL1141788, “Dendridine A, a bis-indole alkaloid from a marine sponge Dictyodendrilla Species” (2005).
